Experimental data: ChEMBL document CHEMBL1127905, “Design and synthesis of a prototype model antagonist of tachykinin NK-2 receptor” (Bioorg Med Chem Lett, 1994)

Target: T1, Substance-K receptor (Homo sapiens) (UniProt P21452)
T1 sequence (whole entry): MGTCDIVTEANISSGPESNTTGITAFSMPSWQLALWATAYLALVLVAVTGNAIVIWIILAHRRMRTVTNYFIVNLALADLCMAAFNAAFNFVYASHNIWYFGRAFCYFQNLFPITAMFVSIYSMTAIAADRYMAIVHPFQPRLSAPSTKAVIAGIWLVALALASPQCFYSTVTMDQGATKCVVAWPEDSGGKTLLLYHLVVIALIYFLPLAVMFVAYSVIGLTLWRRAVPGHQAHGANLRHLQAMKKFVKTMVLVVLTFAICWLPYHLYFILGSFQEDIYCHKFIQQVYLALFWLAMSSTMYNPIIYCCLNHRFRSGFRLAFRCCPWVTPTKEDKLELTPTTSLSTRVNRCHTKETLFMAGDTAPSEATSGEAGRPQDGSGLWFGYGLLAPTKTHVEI
Experiment: Compound was evaluated for binding affinity to human recombinant Tachykinin receptor 2

- Activity: 3 µM
SMILES: O=C(Cc1c[nH]c2ccccc12)N[C@@H]1C(=O)N2[C@H](CC[C@H]2C(=O)NCc2ccccc2)C[C@H]1Cc1ccccc1
